{"source": "patent US20110288033A1", "about": "“Disulfide Compounds for Phototherapy” (Mallinckrodt Inc., priority 2010, published 2011)", "key": {"[1]": {"tested_on": "human myeloid leukemia U937 cell line", "format": "cell-based", "settings": "0, 2.5, 5 and 10 μM; light 0, 10, 20 minutes", "protocol": "A general procedure is carried out for measuring cell viability upon exposure of cancer cells to a disulfide photosensitizer and light. The disulfide photosensitizer evaluated is a commercially available compound having formula (FX13): […]\nCompound (FX13) was purchased from Sigma-Aldrich (Cat #158194). […] Preparation of compound (FX13) is known and can be found, for example, in Rath, C. Derivatives of pyridine. XII. Mercaptans and sulfonic acids of pyridine. Justus Liebigs Annalen der Chemie 1931, 487, 105-119, which is hereby incorporated by reference. Some properties of compound (FX13) are known and can be found, for example, in Grassetti, D. R.; Brokke, M. E.; Murray, J. F., Jr. The effect of some sulfur-containing pyridine derivatives on the carbohydrate metabolism of ehrlich ascites tumor. J. Med. Chem. 1965, 8, 753-756, which is hereby incorporated by reference. The cell viability analysis is carried out using a human myeloid leukemia U937 cell line by the standard WST-1 assay. […]\nThe disulfide photosensitizer is dissolved in DMSO at an initial concentration of about 8 mM and diluted with water to the final desired value such that amount of DMSO exposed to the cells is kept […]. […] The viability of cells is assessed after 24 hours following light exposure. […] The number of viable cells is determined and percent viability is determined: […]"}, "UV spectrum in DMSO": {"test": "UV spectrum in DMSO", "format": "physicochemical"}}, "data": [{"smiles": "O=[N+]([O-])c1ccc(SSc2ccc([N+](=O)[O-])cn2)nc1", "note": "[FX13]", "values": [{"measurement": "change in cell viability with photosensitizer and light (FIG. 5)", "setting": "[1]", "result": "concentration-dependent and light exposure time-dependent decrease in cell viability"}, {"measurement": "absorption λmax", "setting": "UV spectrum in DMSO", "result": 323, "unit": "nm"}]}]}
